# Data from publication PMC9917213, “New Insights into Bitopic Orthosteric/Allosteric Ligands of Cannabinoid Receptor Type 2” (International Journal of Molecular Sciences, 2023).
# Read-outs that look alike come from different tables or passages of the source.
# What was measured:
# hCB2R [1] = target: T1, hCB2R (Homo sapiens, UniProt P34972); test: HitHunter cAMP assay: inhibition of forskolin-stimulated cAMP; type: cell-based; settings: for Emax: read-out: Emax ± SEM
# T1 construct: host or cells: CHO-K1 (HitHunter cAMP cell line)
# Method: Chinese hamster ovary (CHO)-K1 cells untransfected or stably-expressing human cannabinoid CB2R (hCB2R) were used as previously reported. Cells were maintained at 37 °C, 5% CO2 in F-12/DMEM containing 1 mM L-glutamine, 10% fetal bovine serum (FBS), and 1% Pen/Strep and hygromycin B (300 μg/mL) and G418 (400 μg/mL). HitHunter® (cAMP) CHO-K1 cells stably expressing hCB2R from DiscoveRx (Eurofins, Fremont, CA, USA) were maintained at 37 °C, 5% CO2 in F-12 DMEM containing 10% FBS and 1% Pen/Strep with 800 μg/mL geneticin.
# This method was conducted as described previously. The quantification of FSK-stimulated cAMP accumulation was performed using the DiscoveRx HitHunter assay. Twenty thousand cells/well were plated in low-volume 96-well plates and incubated overnight in Opti-MEM containing 1% FBS at 37 °C and 5% CO2. Opti-MEM media was then removed and replaced with cell assay buffer (DiscoveRx), and cells were co-treated at 37 °C with 10 μM FSK and ligands for 90 min. The cAMP antibody solution and cAMP working detection solutions were added to cells (DiscoveRx), and cells were incubated for 60 min at room temperature. cAMP solution A (DiscoveRx) was added, and cells were incubated for an additional 180 min at room temperature before chemiluminescence was measured on a Cytation5 plate reader (top read, gain 200, integration time 10,000 ms).
# Post-hoc analyses were performed using Tukey’s (one-way ANOVA) test.
# [2] = Plasma stability (LC-HRMS), human plasma; type: in vitro ADME; settings: 20 µM, 37 °C, up to 360 min
# Method: (§1) Plasma stability was evaluated at the time points 0, 10, 30, 60, 120, 240, and 360 min over two species, rodent (rat) and human, and assessed by LC-HRMS. Results are expressed as a relative percentage (mean ± SD) with respect to the amount at t = 0 min. JR22a is stable both in rat and human plasma up to the last time point tested (360 min), as can be observed in Figure 6.
# (§2) Stock solutions of 1 mg/mL JR22a and procainamide (used as internal standard, IS) were prepared in CH3OH and kept in ice during sample preparation and stored at −20 °C if not in use. The stability was tested in rat and human plasma obtained from Sigma-Aldrich (Milan, Italy).
# (§3) JR22a (20 µM) was incubated with plasma at 37 °C under gentle shaking up to […] in triplicates. An aliquot of 20 µL was withdrawn from the mixture and diluted to a final volume of 200 µL of a 2 % TCA solution containing procainamide 1 µM at each time point: 10, 30, 60, 120, 240, and 360 min. Samples were kept in ice for 20 min and then centrifugated at 14,000 rpm for 10 min at 4 °C. The supernatant was diluted 1:1 with water and transferred in vials for the analysis. […]
# hCB2R [3] = target: T1, hCB2R; test: [3H]CP55,940 radioligand displacement assay, hCB2R; type: binding
# Method: (§4) We assessed ligand affinity for JR-22a at hCB1R and hCB2R using a […]
# (§5) either receptor. […] At hCB2R, JR-22a
# (§6) Figure S1. […] Membranes from CHO-K1 cells stably-expressing hCB1R (a) or […]
# (§7) Data were fitted to a non-linear regression (three-parameter model, GraphPad v. 9.0). Data are mean ± S.E.M. of 3 independent experiments performed in triplicate.
# (§8) Radioligand Displacement Assay.
# (§9) Cells were scraped from flasks, centrifuged, and frozen at −80 °C until required.
# (§10) This method was conducted as described previously. Cells were thawed, diluted in Tris buffer (50 mM Tris−HCl and 50 mM Tris−base), and homogenized in a 1 mL handheld homogenizer. hCB1R and hCB2R CHO−K1 cell membranes were collected by cavitation in a pressure cell and sedimented by ultracentrifugation. Pellets were resuspended in TME buffer (50 mM Tris−HCl, 5 mM MgCl2, 1 mM EDTA, pH 7.4), and protein concentration was measured via the Bradford method (Bio-Rad Laboratories, Mississauga, ON). Competition binding experiments were conducted with 1 nM [3H]CP55, 940 and Tris binding buffer (50 mM Tris−HCl, 50 mM Tris−base, 0.1% BSA, pH 7.4, 2 mL). Radioligand binding began with the addition of CHO−K1 cell membranes (50 μg protein per sample). […] Liquid scintillation spectrometry was used to quantify radioactivity. For competition binding experiments, specific binding was equal to the difference in radioactivity with or without 1 μM […]
# HMC3 cells [4] = test: MTT cell viability assay; type: cell-based, human; settings: 24 h
# Method: Cell viability was evaluated by 3-(4,5-dimethylthiazol-2-yl)-2,5-diphenyltetrazolium bromide (MTT) reagent. Briefly, HMC3 cells were exposed to increasing concentrations of the compound, ranging from 0.1 to 25 µM. After 24 h, 0.5 mg/mL MTT reagent was added to each well, and the cells were incubated for 3 h at 37 °C. Then, 25 µL of the medium was removed from the wells, and 50 µL of DMSO was added. After 10 min incubation at 37 °C, absorbance at OD540 nm was determined with an automated microplate reader (BIO-TEK, Winooski, VT, USA). The percentage of cell viability was calculated as a percentage of vehicle-treated cells used as control.
# [5] = Plasma stability (LC-HRMS), rat plasma; type: in vitro ADME; settings: 20 µM, 37 °C, up to 360 min
# Method: as §1, §2, §3
# hCB1R = target: T2, hCB1R (Homo sapiens, UniProt P21554); test: [3H]CP55,940 radioligand displacement assay, hCB1R; type: binding; settings: CHO hCB1R membranes, 1 nM [3H]CP55,940, 0.10 nM-10 μM compound, 2 h
# T2 construct: expressed in transfected cells; host or cells: CHO-K1 cell membranes
# Method: as §4, §5, §6, §7, §8, §9, §10
# HMC3 cells [6] = test: IL-6 release (ELISA) in LPS/TNFα stimulated HMC3 cells; type: cell-based, human
# Method: The human microglial clone 3 cell line (HMC3) (ATCC® CRL-3304™) was cultured in high glucose DMEM supplemented with 10% FBS, streptomycin ([…]) and penicillin (100 U/mL) (Sigma-Aldrich, Milan, Italy). LPS (Cat. number L4391) and TNFα (Cat. number H8916) were purchased from Sigma-Aldrich (Milan, Italy).
# The pro-inflammatory IL-6 levels were evaluated by a specific ELISA assay (RAB0306, Sigma-Aldrich, Milan, Italy) on collected culture media. Briefly, HMC3 cells were exposed to pretreatment with a test compound for 30 min followed by LPS (10 μg/mL)/TNFα (50 ng/mL) for 24 h, used as pro-inflammatory stimuli. Vehicle-treated cells were used as control. In competition experiments, the CB2R antagonist (SR144528, 1 μM; Cayman Chemical Company, Ann Arbor, MA, USA) or the CB2R positive allosteric modulator (EC21a, 10 μM) was administered 15 min before agonist administration.
# [7] = pEC50 ± SEM, compound alone, CHO hCB2R, 10 μM FSK, 90 min
# T1 sequence (P34972 whole entry): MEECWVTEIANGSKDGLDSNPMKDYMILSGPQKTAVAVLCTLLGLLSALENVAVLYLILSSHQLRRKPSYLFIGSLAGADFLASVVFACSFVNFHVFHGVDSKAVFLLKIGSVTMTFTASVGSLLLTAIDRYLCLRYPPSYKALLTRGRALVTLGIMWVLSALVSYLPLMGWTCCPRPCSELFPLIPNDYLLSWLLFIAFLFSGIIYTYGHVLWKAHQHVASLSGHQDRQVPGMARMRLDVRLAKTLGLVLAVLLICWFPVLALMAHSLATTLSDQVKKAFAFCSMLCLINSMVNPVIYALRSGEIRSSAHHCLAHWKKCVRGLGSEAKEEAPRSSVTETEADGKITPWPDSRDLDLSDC
# T2 sequence (P21554 whole entry): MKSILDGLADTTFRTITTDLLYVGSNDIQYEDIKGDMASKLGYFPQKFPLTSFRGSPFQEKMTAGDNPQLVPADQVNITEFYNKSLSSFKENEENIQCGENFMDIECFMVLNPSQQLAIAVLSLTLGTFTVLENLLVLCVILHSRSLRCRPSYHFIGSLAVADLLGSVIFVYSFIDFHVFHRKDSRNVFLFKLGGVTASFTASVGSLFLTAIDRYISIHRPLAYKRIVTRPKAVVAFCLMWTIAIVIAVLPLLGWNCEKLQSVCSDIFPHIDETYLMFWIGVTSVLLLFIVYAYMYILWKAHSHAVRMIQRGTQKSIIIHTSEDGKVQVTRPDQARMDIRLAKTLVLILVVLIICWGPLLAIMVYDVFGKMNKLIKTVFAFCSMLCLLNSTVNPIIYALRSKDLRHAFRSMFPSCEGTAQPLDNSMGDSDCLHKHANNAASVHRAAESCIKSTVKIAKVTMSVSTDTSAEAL
compound,measurement,setting,value
"Cc1c(Br)cn(Cc2ccc(F)cc2)c(=O)c1NC(=O)C1CCCCCC1 [EC21a, reference compound]",EC50,hCB2R [1],30 nM
same,Activity alone in cAMP inhibition,"hCB2R [1]; EC21a alone, Emax not different from 0",inactive
same,Emax,hCB2R [1],-14 ± 7%
Cc1c(Br)cn(CCCc2cn(CCCCC(=O)NC3CCC(NC(=O)c4cc5cccnc5n(Cc5ccc(F)cc5)c4=O)CC3)nn2)c(=O)c1NC(=O)C1CCCCCC1 (stereo not drawn) [JR14a],pEC50 ± SEM,"hCB2R [1]; compound alone, CHO hCB2R, 10 μM FSK, 90 min",7.6 ± 0.9
same,EC50,"hCB2R [1]; compound alone, CHO hCB2R, 10 μM FSK, 90 min, read-out: EC50 (in brackets after pEC50) (converted)",24 nM
same,Emax,hCB2R [1],29 ± 5%
Cc1c(Br)cn(CCCc2cn(CCCCCn3c(=O)c(C(=O)NC4CCC(C)CC4)cc4cccnc43)nn2)c(=O)c1NC(=O)C1CCCCCC1 (stereo not drawn) [JR22a],EC50,"hCB2R [1]; EC50 (in brackets after pEC50), compound alone, CHO hCB2R, 10 μM FSK, 90 min",698 nM
same,EC50,hCB2R [1]; [7],794 nM
same,Emax,hCB2R [1],53 ± 6%
same,Plasma stability,[2],stable
same,IC50,hCB2R [3],95 nM
same,Ki,hCB2R [3],95 nM
same,Cell viability (MTT),HMC3 cells [4]; 25 μM,significant inhibition of cell viability
same,"Cytotoxic effect (cell viability, MTT)",HMC3 cells [4]; 1 and 10 μM,no cytotoxic effect
same,Plasma stability,[5],stable
same,"Displacement of [3H]CP55,940",hCB1R,not able to displace
same,IL-6 levels in the cultured medium,"HMC3 cells [6]; 1 and 10 μM, 30 min pre-treatment, then LPS (10 μg/mL)/TNFα (50 ng/mL) 24 h",significant dose-dependent decrease
same,Effect of EC21a co-treatment on ability of JR22a to prevent IL-6 release,"HMC3 cells [6]; EC21a 10 μM, equimolar with JR22a, LPS/TNFα 24 h",did not interfere
same,Effect of SR144528 pre-administration on the JR22a effect on IL-6 release,"HMC3 cells [6]; SR144528 1 μM, 15 min before JR22a, LPS/TNFα 24 h",almost completely abolished
Cc1c(Br)cn(CCCCCCCn2c(=O)c(C(=O)NC3CCC(C)CC3)cc3cccnc32)c(=O)c1NC(=O)C1CCCCCC1 (stereo not drawn) [JR64a],EC50,hCB2R [1]; [7],2.51 nM
same,Emax,hCB2R [1],19 ± 6%
